Tested on: pp150-specific T cell clones
Assay: Chromium release assay with peptide-sensitized EBVLCL and pp150-specific CTL clones (epitope mapping)
Format: cell-based, human
Conditions: persons having the indicated HLA allele; target cells sensitized with peptide at 50 μM

TTVYPPSSTAK (listed as Human cytomegalovirus) [SEQ ID NO: 1]
Number of Individuals Tested: 2/2

QTVTSTPVQGR (listed as Human cytomegalovirus) [SEQ ID NO: 2]
Number of Individuals Tested: 2/2
